IC50 data for 21 compounds are collected here from ChEMBL document CHEMBL3232946, “Development of 3,5-dinitrobenzoate-based 5-lipoxygenase inhibitors” (Bioorg Med Chem, 2014).

The target of assay [1] is T1, Polyunsaturated fatty acid 5-lipoxygenase (Homo sapiens, UniProt P09917).
T1 sequence (P09917 whole entry): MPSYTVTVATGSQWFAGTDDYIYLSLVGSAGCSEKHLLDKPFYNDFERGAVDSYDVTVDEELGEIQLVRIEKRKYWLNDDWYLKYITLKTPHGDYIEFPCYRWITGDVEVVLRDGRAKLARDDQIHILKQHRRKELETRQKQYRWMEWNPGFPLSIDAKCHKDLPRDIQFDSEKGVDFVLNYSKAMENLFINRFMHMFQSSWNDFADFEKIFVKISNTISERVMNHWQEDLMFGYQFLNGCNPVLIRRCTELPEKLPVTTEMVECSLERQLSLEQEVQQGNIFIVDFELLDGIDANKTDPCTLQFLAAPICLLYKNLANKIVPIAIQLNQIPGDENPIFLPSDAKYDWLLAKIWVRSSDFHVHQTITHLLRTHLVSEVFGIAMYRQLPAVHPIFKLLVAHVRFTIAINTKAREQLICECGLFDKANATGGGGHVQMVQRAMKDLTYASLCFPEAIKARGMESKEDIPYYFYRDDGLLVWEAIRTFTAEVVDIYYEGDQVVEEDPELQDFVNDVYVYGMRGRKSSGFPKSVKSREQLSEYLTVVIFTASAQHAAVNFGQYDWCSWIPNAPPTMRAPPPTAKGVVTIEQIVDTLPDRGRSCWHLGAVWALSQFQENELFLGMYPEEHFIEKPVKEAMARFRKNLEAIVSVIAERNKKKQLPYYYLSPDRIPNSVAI
In words: Inhibition of human 5-LOX using arachidonic acid as substrate preincubated for 10 mins followed by substrate addition by H2DCFDA staining-based fluorometric analysis.

Assay [2] deals with T1, Polyunsaturated fatty acid 5-lipoxygenase. In words: Inhibition of 5-LOX in human whole blood assessed as inhibition of A23187-induced LTB4 production preincubated for 15 mins followed by A23187 induction measured after 30 mins by ELISA.

Bounds are passed on as bounds.

For `O=C(Oc1cccc2ccccc12)c1cc([N+](=O)[O-])cc([N+](=O)[O-])c1`, the IC50 in assay [1] was 1 µM.
On to `Cc1cccc(OC(=O)c2cc([N+](=O)[O-])cc([N+](=O)[O-])c2)c1`, for which the values for the IC50 in assay [2] and in assay [1] were 0.5 µM and 0.006 µM, respectively.
The like results for `O=C(Oc1ccccc1)c1cc([N+](=O)[O-])cc([N+](=O)[O-])c1` were, in that order, 15.8 µM and 1.6 µM.
As for `CCCc1cccc(OC(=O)c2cc([N+](=O)[O-])cc([N+](=O)[O-])c2)c1`, the half-maximal inhibitory concentration (IC50) in assay [2] was 6.5 µM; in assay [1], 7.4 µM.
As to `O=C(Oc1cccc(Cl)c1Cl)c1cc([N+](=O)[O-])cc([N+](=O)[O-])c1`, the IC50 in assay [2] and in assay [1] was above 50 µM in each case.
With `O=C(Oc1cccc(-c2ccccc2)c1)c1cc([N+](=O)[O-])cc([N+](=O)[O-])c1`, the IC50 in assay [2] stood at 38 µM; in assay [1], 8.7 µM.
Consider `O=C(Oc1ccc(-c2ccccc2)cc1)c1cc([N+](=O)[O-])cc([N+](=O)[O-])c1`, for which the IC50 in assay [2] and in assay [1] was above 50 µM each time.
With `O=C(Oc1cccc2ccccc12)c1cccc([N+](=O)[O-])c1`, the results for the IC50 in assay [2] and in assay [1] were 24.6 µM and 7.1 µM, respectively.
As to `O=C(Nc1cccc2ccccc12)c1cc([N+](=O)[O-])cc([N+](=O)[O-])c1`, the IC50 is above 50 µM in assay [2] and 0.004 µM in assay [1].
The like results for `O=C(Nc1ccccc1)c1cc([N+](=O)[O-])cc([N+](=O)[O-])c1` were, in that order, 15.2 µM and 1.8 µM.
Taken in the same sequence, the figures for `Cc1cccc(NC(=O)c2cc([N+](=O)[O-])cc([N+](=O)[O-])c2)c1` were above 50 µM and 0.01 µM.
For the compound `O=C(Nc1cccc(Cl)c1)c1cc([N+](=O)[O-])cc([N+](=O)[O-])c1`, the values for the IC50 in assay [2] and in assay [1] were above 50 µM and 0.033 µM, respectively.
The like results for `O=C(Nc1cccc(Br)c1)c1cc([N+](=O)[O-])cc([N+](=O)[O-])c1` were, in that order, above 50 µM and above 50 µM.
Turning to `COc1ccc(NC(=O)c2cc([N+](=O)[O-])cc([N+](=O)[O-])c2)cc1`, the IC50 stood at 2.7 µM in assay [2] and 0.034 µM in assay [1].
Taken in the same sequence, the figures for `COc1ccc(NC(=O)c2cc([N+](=O)[O-])cc([N+](=O)[O-])c2)cc1OC` were above 50 µM and 1.1 µM.
`O=C(NCc1cccc(Br)c1)c1cc([N+](=O)[O-])cc([N+](=O)[O-])c1`: the IC50 in assay [2] was 14.4 µM; in assay [1], 83.6 µM.
The like results for `O=C(Nc1cccc(-c2ccccc2)c1)c1cc([N+](=O)[O-])cc([N+](=O)[O-])c1` were, in that order, above 50 µM and 0.03 µM.
For `O=C(O)c1cccc(C(=O)OCc2ccccc2)c1`, the IC50 in assay [2] and in assay [1] was above 50 µM each time.
Turning to `O=C(O)c1cccc(C(=O)Oc2cccc3ccccc23)c1`, the IC50 in assay [2] and in assay [1] was above 50 µM throughout.
Turning to `O=C(O)c1cccc(C(=O)Nc2cccc3ccccc23)c1`, the IC50 in assay [2] and in assay [1] was above 50 µM throughout.
In the case of `O=C(O)c1cccc(C(=O)Nc2ccccc2)c1`, the IC50 in assay [2] and in assay [1] was above 50 µM each time.
